Structures can show the parent of a compound that is named as a salt.
What follows are compounds tested on Acinetobacter baumannii ATCC17978 (assay: Antimicrobial susceptibility testing: 90% growth inhibitory concentration (IC90) determination, Iso-Sensitest broth, OD 600 nm). Details: 90% growth inhibitory concentration, Acinetobacter baumannii ATCC17978, Iso-Sensitest broth, OD 600 nm over 16 h; read-out: ATCC 17978 IC90.
Assay type: cell-based
Experimental: Antimicrobial Susceptibility Testing:
90% Growth Inhibitory Concentration (IC90) Determination
The in vitro antimicrobial activity of the compounds was determined according to the following procedure:
The assay used a 10-points Iso-Sensitest broth medium to measure quantitatively the in vitro activity of the compounds against Acinetobacter baumannii ATCC17978 and Acinetobacter baumannii ATCC17961.
Stock compounds in DMSO were serially twofold diluted (e.g. range from 50 to 0.097 μM final concentration) in 384 wells microtiter plates and inoculated with 49 μl the bacterial suspension in Iso-Sensitest medium to have a final cell concentration of ˜5×10^(5) CFU/ml in a final volume/well of 50 ul/well. Microtiter plates were incubated at 35±2° C.
Bacterial cell growth was determined with the measurement of optical density at λ=600 nm each 20 minutes over a time course of 16 h. Growth inhibition was calculated during the logarithmic growth of the bacterial cells with determination of the concentration inhibiting 50% (IC50) and 90% (IC90) of the growth.
Table 1 provides the 90% growth inhibitory concentrations (IC90) in micromoles per liter of the compounds of present invention obtained against the strain Acinetobacter baumannii ATCC17978 and Acinetobacter baumannii ATCC17961.

| IC90 [nM] | Compound |
| --- | --- |
| 110 | CCc1cc(Nc2nccn3c(-c4ccc(OC)c(F)c4F)cnc23)ccc1C(=O)NCCNCCN [Example 64, N-(2-((2-Aminoethyl)amino)ethyl)-4-((3-(2,3-difluoro-4-methoxyphenyl)imidazo[1,2-a]pyrazin-8-yl)amino)-2-ethylbenzamide] |

Same assay, conditions: Acinetobacter baumannii, ATCC17978, 16 h, 90% growth inhibitory concentration, Acinetobacter baumannii ATCC17978, Iso-Sensitest broth, OD 600 nm over 16 h; read-out: ATCC 17978 IC90

| IC90 [nM] | Compound |
| --- | --- |
| 610 | Cc1cc(Nc2nccn3c(-c4ccc(OC(F)F)cc4)cnc23)ccc1C(=O)NCCOCCNC(=O)CO [Example 119, 4-[[3-[4-(difluoromethoxy)phenyl]imidazo [1,2-a]pyrazin-8-yl]amino]-N-[2-[2-[(2-hydroxyacetyl)amino]ethoxy]ethyl]-2-methylbenzamide] |
| 430 | Cc1cc(Nc2nccn3c(-c4ccc(OCC#CCN)c(F)c4F)cnc23)ccc1C(=O)NCCOCCN [Example 160, 4-[[3-[4-(4-aminobut-2-ynoxy)-2,3-difluorophenyl]imidazo[1,2-a]pyrazin-8-yl]amino]-N-[2-(2-aminoethoxy)ethyl]-2-methylbenzamide] |
| 480 | COc1ccc(-c2cnc3c(Nc4ccc(C(=O)NCCOCCN5CCOCC5)c(C)c4)nccn23)cc1 [Example 106, 4-[[3-(4-methoxyphenyl)imidazo[1,2-a]pyrazin-8-yl]amino]-2-methyl-N-[2-(2-morpholin-4-ylethoxy)ethyl] benzamide] |
| 8900 | Cc1cc(Nc2nccn3c(-c4ccc(OC(F)F)cc4)cnc23)ccc1C(=O)NCCOCC(=O)NCc1nnn[nH]1 [Example 158, 4-[[3-[4-(difluoro-methoxy)phenyl]imidazo [1,2-a]pyrazin-8-yl]amino]-2-methyl-N-[2-[2-oxo-2-(1H-tetrazol-5-ylmethylamino)ethoxy]ethyl] benzamide] |
| 570 | COc1ccc(-c2cnc3c(Nc4ccc(C(=O)NCCOCC(=O)N5CCNCC5)c(C)c4)nccn23)cc1 [Example 112, 4-[[3-(4-methoxyphenyl)imidazo[1,2-a]pyrazin-8-yl]amino]-2-methyl-N-[2-(2-oxo-2-piperazin-1-ylethoxy)ethyl] benzamide] |
| 4700 | COc1ccc(-c2cnc3c(Nc4ccc(C(=O)N(C)CCOCCN5CCNC(C(=O)O)C5)c(C)c4)nccn23)cc1F (stereo not shown) [Example 166, 4-[2-[2-[[4-[[3-(3-fluoro-4-methoxyphenyl)imidazo[1,2-a]pyrazin-8-yl]amino]-2-methylbenzoyl]-methylamino]ethoxy]ethyl]piperazine-2-carboxylic acid; hydrochloride] |
| 960 | Cc1cc(Nc2nccn3c(-c4ccc(Cl)cc4)cnc23)ccc1C(=O)N(C)CCOCCN [Example 138, N-[2-(2-aminoethoxy)ethyl]-4-[[3-(4-chlorophenyl)imidazo[1,2-a]pyrazin-8-yl]amino]-N,2-dimethyl-benzamide; hydrochloride] |
| 590 | Cc1cc(Nc2nccn3c(-c4ccc(Cl)cc4)cnc23)ccc1C(=O)NCCNCCN [Example 117, N-[2-(2-aminoethylamino)ethyl]-4-[[3-(4-chlorophenyl)imidazo[1,2-a]pyrazin-8-yl]amino]-2-methylbenzamide; hydrochloride] |
| 52 | COc1ccc(-c2cnc3c(Nc4ccc(C(=O)NCCOCCN)c(Br)c4)nccn23)c(F)c1F [Example 167, N-[2-(2-aminoethoxy)ethyl]-2-bromo-4-[[3-(2,3-difluoro-4-methoxyphenyl)imidazo[1,2-a]pyrazin-8-yl]amino] benzamide; formic acid] |
| 1500 | COCCOCCOCCNC(=O)c1ccc(Nc2nccn3c(-c4ccc(OC(F)F)cc4)cnc23)cc1C [Example 150, 4-[[3-[4-(difluoro-methoxy)phenyl]imidazo [1,2-a]pyrazin-8-yl]amino]-N-[2-[2-(2-methoxy-ethoxy)ethoxy]ethyl]-2-methylbenzamide] |
| 50 | CCc1cc(Nc2nccn3c(-c4ccc(OC)c(F)c4F)cnc23)ccc1C(=O)NCCOCCN [Example 86] |
| 280 | COCC#CCOc1ccc(-c2cnc3c(Nc4ccc(C(=O)NCCOCCN)c(C)c4)nccn23)cc1 [Example 93, N-[2-(2-aminoethoxy)ethyl]-4-[[3-[4-(4-methoxy-but-2-ynoxy)phenyl]imidazo[1,2-a]pyrazin-8-yl]amino]-2-methylbenzamide; formic acid] |
| 120 | C#CCOc1ccc(-c2cnc3c(Nc4ccc(C(=O)NCCOCCN)c(C)c4)nccn23)cc1 [Example 28, N-[2-(2-Aminoethoxy)ethyl]-2-methyl-4-[[3-(4-prop-2-ynoxyphenyl)imidazo[1,2-a]pyrazin-8-yl]amino]benzamide; formic acid] |
| 640 | Cc1cc(Nc2nccn3c(-c4ccc(OC(F)F)cc4)cnc23)ccc1C(=O)NCCOCCN1CCC2(COC2)C1 [Example 83, 4-[[3-[4-(difluoromethoxy)phenyl]imidazo [1,2-a]pyrazin-8-yl]amino]-2-methyl-N-[2-[2-(2-oxa-7-azaspiro [3.4]octan-7-yl)ethoxy]ethyl]benzamide] |
| 220 | CCc1cc(Nc2nccn3c(-c4ccc(OC)cc4)cnc23)ccc1C(=O)NCCOCCNCCO [Example 89, 2-ethyl-N-[2-[2-(2-hydroxyethyl-amino)ethoxy]ethyl]-4-[[3-(4-methoxyphenyl)imidazo[1,2-a]pyrazin-8-yl]amino]benzamide] |
| 530 | Cc1cc(Nc2nccn3c(-c4ccc(OC(F)F)cc4)cnc23)ccc1C(=O)NCCS(=O)(=O)CCN [Example 46, N-(2-((2-Aminoethyl)sulfonyl)ethyl)-4-((3-(4-(difluoromethoxy)phenyl)imidazo[1,2-a]pyrazin-8-yl)amino)-2-methylbenzamide] |

Further lines, the compound ahead of its results:

| Compound | IC90 [nM] |
| --- | --- |
| CCc1cc(Nc2nccn3c(-c4ccc(Cl)c(F)c4F)cnc23)ccc1C(=O)NCCSCCN [Example 159, N-[2-(2-aminoethyl-sulfanyl)ethyl]-4-[[3-(4-chloro-2,3-difluorophenyl)imidazo[1,2-a]pyrazin-8-yl]amino]-2-ethylbenzamide] | 210 |
| CCc1cc(Nc2nccn3c(-c4ccc(Cl)c(F)c4F)cnc23)ccc1C(=O)NCCCNC [Example 192, 4-[[3-(4-chloro-2,3-difluorophenyl)imidazo[1,2-a]pyrazin-8-yl]amino]-2-ethyl-N-[3-(methyl-amino)propyl] benzamide; hydrochloride] | 1600 |
| CCc1cc(Nc2nccn3c(-c4ccc(OC)c(F)c4F)cnc23)ccc1C(=O)NCCNCCO [Example 196, 4-((3-(2,3-difluoro-4-methoxyphenyl)imidazo[1,2-a]pyrazin-8-yl)amino)-2-ethyl-N-(2-((2-hydroxyethyl)amino)ethyl) benzamide hydrochloride] | 290 |
| N#CCOc1ccc(-c2cnc3c(Nc4ccc(C(=O)NCCOCCn5ccnc5)c(Cl)c4)nccn23)c(F)c1F [Example 19, N-(2-(2-(1H-imidazol-1-yl)ethoxy)ethyl)-2-chloro-4-((3-(4-(cyanomethoxy)-2,3-difluorophenyl)imidazo[1,2-a]pyrazin-8-yl)amino)benzamide] | 83 |
| COc1ccc(-c2cnc3c(Nc4ccc(C(=O)NCCOCCN)c(CCF)c4)nccn23)c(F)c1F [Example 74, N-[2-(2-aminoethoxy)ethyl]-4-[[3-(2,3-difluoro-4-methoxy-phenyl)imidazo[1,2-a]pyrazin-8-yl]amino]-2-(2-fluoroethyl)benzamide] | 46 |
| CCc1cc(Nc2nccn3c(-c4ccc(OC)c(F)c4F)cnc23)ccc1C(=O)NCCCNCC[C@H](N)C(=O)O [Example 183, (2S)-2-amino-4-[3-[[4-[[3-(2,3-difluoro-4-methoxyphenyl)imidazo[1,2-a]pyrazin-8-yl]amino]-2-ethyl-benzoyl]amino]propylamino] butanoic acid; formic acid] | 660 |
| CCc1cc(Nc2nccn3c(-c4ccc(Cl)c(F)c4F)cnc23)ccc1C(=O)NCCOCCN [Example 9, N-(2-(2-aminoethoxy)ethyl)-4-((3-(4-chloro-2,3-difluorophenyl)imidazo[1,2-a]pyrazin-8-yl)amino)-2-ethylbenzamide hydrochloride] | 160 |
| COc1ccc(-c2cnc3c(Nc4cc(F)c(C(=O)NCCOCCN)c(F)c4)nccn23)c(F)c1F [Example 59, N-(2-(2-aminoethoxy)ethyl)-4-((3-(2,3-difluoro-4-methoxy-phenyl)imidazo[1,2-a]pyrazin-8-yl)amino)-2,6-difluoro-benzamide] | 130 |

Same assay, conditions: Acinetobacter baumannii, ATCC17978, 16 h, read-out: ATCC 17978 IC90

| Compound | IC90 [nM] |
| --- | --- |
| CCc1cc(Nc2nccn3c(-c4c(F)cc(OC)cc4F)cnc23)ccc1C(=O)NCCOCCN [Example 54, N-[2-(2-aminoethoxy)ethyl]-4-[[3-(2,6-difluoro-4-methoxyphenyl)imidazo[1,2-a]pyrazin-8-yl]amino]-2-ethylbenzamide hydrochloride] | 320 |
| Cc1cc(Nc2nccn3c(-c4ccc(F)cc4)cnc23)ccc1C(=O)NCCOCCN [Example 31, N-(2-(2-aminoethoxy)ethyl)-4-((3-(4-fluorophenyl)imidazo[1,2-a]pyrazin-8-yl)amino)-2-methylbenzamide hydrochloride] | 950 |
| Cc1cc(Nc2nccn3c(-c4ccc(F)cc4F)cnc23)ccc1C(=O)NCCOCCN [Example 35, N-(2-(2-aminoethoxy)ethyl)-4-((3-(2,4-difluorophenyl)imidazo[1,2-a]pyrazin-8-yl)amino)-2-methylbenzamide hydrochloride] | 770 |

Source: patent US20230017532A1 (Hoffmann-La Roche Inc., priority 2018, published 2023)
